Source: publication PMC3435245, “D-Alanylation of Lipoteichoic Acids Confers Resistance to Cationic Peptides in Group B Streptococcus by Increasing the Cell Wall Density” (PLoS Pathogens, 2012)
In brackets after ≈: the same amount, converted by molar mass. Where a SMILES comes first, the peptide text is derived from it. [ ]: non-standard residue; d: D form.

How the values were obtained:
[1] = RP-HPLC hydrophobicity (% AcN at elution); assay type: physicochemical; settings: chromatographic, C4 reverse analytical column; eluted in 40 min, linear gradient of acetonitrile 30 to 70% v/v in water containing TFA (0.05% v/v)
Description: The procedure conducted as described previously. Briefly, peptides were synthesized using the Fmoc solid phase method on Rink amide resin ([…]). For fluorescent labeling of the N-terminus of the peptides, resin-bound peptides were treated with NBD or rhodamine dissolved in dimethyl formamide (DMF), washed thoroughly with DMF and then with methylene chloride, dried and then cleaved. […] The peptides were subjected to amino acid and mass spectrometry analysis to confirm their composition.

GBS NEM316 WT strain = assay type: cell-based, Streptococcus agalactiae; settings: Todd-Hewitt broth with 100 mM HEPES, 2×10^6 CFU, 96-well polypropylene microplate, overnight 37°C, OD600 nm; average of triplicate measurements
Description: (§1) The MICs of each antimicrobial peptide were tested in Todd-Hewitt broth (THB) buffered with 100 mM HEPES in 96-well polypropylene microplates (Costar, Cambridge, MA) by a dilution method. Bacteria (2×10^6 CFU) were added in triplicates to wells containing increasing concentrations of the antimicrobial peptides. Plates were incubated at 37°C with shaking overnight and then read (OD600 nm) using microplate reader (Labsystems Multiskanat) for bacterial growth. The MICs90 was considered to be the peptide concentration that inhibited 90% growth.

GBS ΔdltA mutant = assay: MIC90 by dilution method, GBS ΔdltA; assay type: cell-based, Streptococcus agalactiae; settings: Todd-Hewitt broth with 100 mM HEPES, 2×10^6 CFU, 96-well polypropylene microplate, overnight 37°C, OD600 nm; average of triplicate measurements
Description: as §1

GBS ΔmprF mutant = assay: MIC90 by dilution method, GBS ΔmprF; assay type: cell-based, Streptococcus agalactiae; settings: Todd-Hewitt broth with 100 mM HEPES, 2×10^6 CFU, 96-well polypropylene microplate, overnight 37°C, OD600 nm; average of triplicate measurements
Description: as §1

GBS Δlgt Δlsp mutant = assay: MIC90 by dilution method, GBS Δlgt Δlsp; assay type: cell-based, Streptococcus agalactiae; settings: Todd-Hewitt broth with 100 mM HEPES, 2×10^6 CFU, 96-well polypropylene microplate, overnight 37°C, OD600 nm; average of triplicate measurements
Description: as §1

GBS ΔcpsD mutant = assay: MIC90 by dilution method, GBS ΔcpsD; assay type: cell-based, Streptococcus agalactiae; settings: Todd-Hewitt broth with 100 mM HEPES, 2×10^6 CFU, 96-well polypropylene microplate, overnight 37°C, OD600 nm; average of triplicate measurements
Description: as §1

GBS ΔsrtA mutant = assay: MIC90 by dilution method, GBS ΔsrtA; assay type: cell-based, Streptococcus agalactiae; settings: Todd-Hewitt broth with 100 mM HEPES, 2×10^6 CFU, 96-well polypropylene microplate, overnight 37°C, OD600 nm; average of triplicate measurements
Description: as §1

GBS WT and dltA strains = assay: SYTOX green uptake assay (membrane perforation); assay type: cell-based, Streptococcus agalactiae; settings: 30 min exposure, 1 µM SYTOX green, sodium phosphate buffer 20 mM pH 7.4, excitation 485 nm, emission 520 nm; triplicates
Description: To determine whether altered susceptibility to CAMPs correlates with changes in membrane permeability, we measured the entrance of the cationic dye SYTOX green into the WT and dltA strains. SYTOX green cannot enter intact bacteria unless the membrane is disrupted by external compounds. Upon penetration into bacteria and binding to intracellular nucleic acids, its signal increases drastically. A dose-dependent enhancement of signal intensity was found following exposure to selected CAMPs.
Figure 2 Susceptibility of GBS strains to perforation by CAMPs. Peptide-dependent influx of the vital dye SYTOX green following 30 min exposure of GBS to magainin 2 (A), LL-37 (B), 5D-K6L9 (C) and K5L7 (D). Solid lines represent the WT strain whereas dashed lines represent the dltA muatnt. All readings were normalized by subtracting the basal fluorescence of the dye. Data are means ± SD of triplicate measurements.
Bacteria were washed twice, resuspended in sodium phosphate buffer (SPB, 20 mM, pH 7.4), and incubated with 1 µM SYTOX green for 20 min in the dark with agitation. Bacteria were added to a 96 well black plate (Nunc, Denmark) containing increasing concentrations of CAMPs and the increase in fluorescence, due to penetration and binding of the dye to intracellular DNA, was immediately monitored (excitation of 485 nm and emission of 520 nm). […]

CC(C)C[C@H](NC(=O)[C@H](CC(C)C)NC(=O)[C@@H](CCCCN)NC(=O)[C@H](CC(C)C)NC(=O)[C@H](CC(C)C)NC(=O)[C@H](CCCCN)NC(=O)[C@@H](CCCCN)NC(=O)[C@@H](CC(C)C)NC(=O)[C@H](CC(C)C)NC(=O)[C@@H](CCCCN)NC(=O)[C@H](CCCCN)NC(=O)[C@H](CC(C)C)NC(=O)[C@@H](CC(C)C)NC(=O)[C@H](CCCCN)NC(=O)[C@@H](N)CC(C)C)C(N)=O [5D-K6L9] (H-LK[dL]LK[dK]L[dL][dK]KLL[dK]LL-NH2; N-terminus assumed)
Hydrophobicity (% AcN) [1]: 55.6 % AcN
MIC90, WT (GBS NEM316 WT strain): 4.4 µM (≈ 7.94 µg/mL)
MIC90, ΔdltA (GBS ΔdltA mutant): 2.2 µM (≈ 3.97 µg/mL)
MIC90, ΔmprF (GBS ΔmprF mutant): 4.4 µM (≈ 7.94 µg/mL)
MIC90, Δlgt Δlsp (GBS Δlgt Δlsp mutant): 4.4 µM (≈ 7.94 µg/mL)
MIC90, ΔcpsD (GBS ΔcpsD mutant): 4.4 µM (≈ 7.94 µg/mL)
MIC90, ΔsrtA (GBS ΔsrtA mutant): 4.4 µM (≈ 7.94 µg/mL)
SYTOX green influx signal, dltA mutant compared to WT (GBS WT and dltA strains): similarly active on both strains
